Results published in patent US20050065595A1, “Implants containing combretastatin a-4” (priority 2001, published 2005).

What was measured:
[1] = test system: smooth muscle cells (SMCs); test: SMC proliferation inhibition (BrdU-ELISA or cell counting); format: cell-based; conditions: for IC50: 96 h, SMCs, 2000 cells per well, BrdU-ELISA (paclitaxel: counting the number of cells), 24, 48, 72, 96 h
Description: SMCs were plated out in a 96-well plate in a density of 2000 cells per well. After 24 h, different concentrations of the active substance were adjusted (10^−2 to 10^−10M). The proliferation was measured after 24, 48, 72, and 96 h following the addition of the active substance using a BrdU-ELISA or, in the case of paclitaxel, by counting the number of cells.

endothelial cells = test: Cell culture studies with endothelial cells after CA4 treatment; format: cell-based; conditions: following a treatment with CA4
alkaline phosphatases = conditions: by alkaline phosphatases; cited from earlier work
tumor cell lines = conditions: cell culture studies, many different tumor cell lines; read-out: IC50, growth of tumor cell lines; cited from earlier work
tumors = conditions: various animal models; cited from earlier work
neointimal development [2] = conditions: animal experiments; cited from earlier work
neointimal development [3] = conditions: swine; cited from earlier work
restenosis = conditions: vascular wall injured by balloon angioplasty and stent placement; cited from earlier work

## COc1ccc(/C=C\c2cc(OC)c(OC)c(OC)c2)cc1O [CA4, 2-methoxy-5-[(1Z)-2-(3,4,5-trimethoxyphenyl)ethenyl]phenol]
[1]
  IC50: ~0.5 nM
[1]; CA4 vs paclitaxel
  effectiveness relative to paclitaxel (SMC proliferation): 10 to 50 times
Endothelial cells
  recovery of endothelial cells versus SMCs after treatment: endothelial cells are able to recover more rapidly than the SMCs

## COc1ccc(/C=C\c2cc(OC)c(OC)c(OC)c2)cc1OP(=O)([O-])[O-].[Na+].[Na+] [CA4P, disodium combretastatin-A4-3-O-phosphate]
Alkaline phosphatases
  transformation into CA4 in vivo: very rapidly transformed into CA4
Tumor cell lines
  IC50: 0.2 to 6 nM
tumors
  inhibition of tumor growth: markedly inhibit the growth of tumors

## CC(=O)O[C@H]1C(=O)[C@@]2(C)[C@H]([C@H](OC(=O)c3ccccc3)[C@]3(O)C[C@H](OC(=O)[C@H](O)[C@@H](NC(=O)c4ccccc4)c4ccccc4)C(C)=C1C3(C)C)[C@]1(OC(C)=O)CO[C@@H]1C[C@@H]2O [paclitaxel]
[1]
  IC50: ~10 nM
Neointimal development [2]
  effect on neointimal development: inhibit the neointimal development
Neointimal development [3]
  effect 6 months after implantation of coated stents: the effect had been neutralized

## CO[C@H]1C[C@@H]2CC[C@@H](C)[C@@](O)(O2)C(=O)C(=O)N2CCCC[C@H]2C(=O)O[C@H]([C@H](C)C[C@@H]2CC[C@@H](O)[C@H](OC)C2)CC(=O)[C@H](C)/C=C(\C)[C@@H](O)[C@@H](OC)C(=O)[C@H](C)C[C@H](C)/C=C/C=C/C=C/1C [rapamycin]
restenosis
  healing of the vascular wall: delayed healing of the vascular wall
